{
  "source": "PubChem BioAssay AID2060618",
  "about": "(Molecular Pharmacology Branch, DTP, NCI, 2025)",
  "system": "454973-116-R2-J3-PDC spheroids, percent test/control viability",
  "test": "Anticancer human tumor 454973-116-R2-J3-PDC patient-derived pancreatic carcinoma cell line growth inhibition [CLK]",
  "conditions": "spheroids with HUVEC and MSC; for pIC50: curve of first compound; for viability, T/C: stronger effect = lower value",
  "how_it_was_run": "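Patient-derived tumor cells grown as complex spheroids with HUVEC endothelial cells and mesenchymal stem cells, treated with drug combinations. Concentrations descend in half-log steps from near clinical Cmax, or from 10 microM if Cmax unknown.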",
  "note": "pIC50: −log10 of the molar value.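 Note: spheroids exposed to compounds for 7 days before readout.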",
  "data": [
    {"smiles": "CC(=O)O[C@H]1C(=O)[C@@]2(C)[C@H]([C@H](OC(=O)c3ccccc3)[C@]3(O)C[C@H](OC(=O)[C@H](O)[C@@H](NC(=O)c4ccccc4)c4ccccc4)C(C)=C1C3(C)C)[C@]1(OC(C)=O)CO[C@@H]1C[C@@H]2O", "note": "+ CN1CCN(c2cc(C(=O)Nc3cc4cc(-c5cnn(C)c5)ccc4cn3)ccn2)CC1", "values": [
      {"measurement": "pIC50", "setting": "second compound 0.0316 µM", "value": "> 7.50"},
      {"measurement": "pIC50", "setting": "second compound 0.1 µM", "value": "> 7.50"},
      {"measurement": "pIC50", "setting": "second compound 0.316 µM", "value": "> 7.50"},
      {"measurement": "pIC50", "setting": "second compound 1 µM", "value": "> 7.50"},
      {"measurement": "pIC50", "setting": "second compound 3.16 µM", "value": "> 7.50"},
      {"measurement": "pIC50", "setting": "second compound 10 µM", "value": "> 7.50"},
      {"measurement": "viability, T/C", "setting": "second compound 0.0316 µM, first compound 0.0316 µM", "value": 7.05, "unit": "%"},
      {"measurement": "viability, T/C", "setting": "second compound 0.0316 µM, first compound 0.1 µM", "value": 6.65, "unit": "%"},
      {"measurement": "viability, T/C", "setting": "second compound 0.0316 µM, first compound 0.316 µM", "value": 6.57, "unit": "%"},
      {"measurement": "viability, T/C", "setting": "second compound 0.0316 µM, first compound 1 µM", "value": 6.34, "unit": "%"},
      {"measurement": "viability, T/C", "setting": "second compound 0.0316 µM, first compound 3.16 µM", "value": 6.67, "unit": "%"},
      {"measurement": "viability, T/C", "setting": "second compound 0.0316 µM, first compound 10 µM", "value": 12.9, "unit": "%"},
      {"measurement": "viability, T/C", "setting": "second compound 0.1 µM, first compound 0.0316 µM", "value": 5.8, "unit": "%"},
      {"measurement": "viability, T/C", "setting": "second compound 0.1 µM, first compound 0.1 µM", "value": 5.47, "unit": "%"},
      {"measurement": "viability, T/C", "setting": "second compound 0.1 µM, first compound 0.316 µM", "value": 3.95, "unit": "%"},
      {"measurement": "viability, T/C", "setting": "second compound 0.1 µM, first compound 1 µM", "value": 5.69, "unit": "%"},
      {"measurement": "viability, T/C", "setting": "second compound 0.1 µM, first compound 3.16 µM", "value": 4.88, "unit": "%"},
      {"measurement": "viability, T/C", "setting": "second compound 0.1 µM, first compound 10 µM", "value": 6.14, "unit": "%"},
      {"measurement": "viability, T/C", "setting": "second compound 0.316 µM, first compound 0.0316 µM", "value": 1.6, "unit": "%"},
      {"measurement": "viability, T/C", "setting": "second compound 0.316 µM, first compound 0.1 µM", "value": 1.85, "unit": "%"},
      {"measurement": "viability, T/C", "setting": "second compound 0.316 µM, first compound 0.316 µM", "value": 2.44, "unit": "%"},
      {"measurement": "viability, T/C", "setting": "second compound 0.316 µM, first compound 1 µM", "value": 1.75, "unit": "%"},
      {"measurement": "viability, T/C", "setting": "second compound 0.316 µM, first compound 3.16 µM", "value": 1.77, "unit": "%"},
      {"measurement": "viability, T/C", "setting": "second compound 0.316 µM, first compound 10 µM", "value": 1.9, "unit": "%"},
      {"measurement": "viability, T/C", "setting": "second compound 1 µM, first compound 0.0316 µM", "value": 0.11, "unit": "%"},
      {"measurement": "viability, T/C", "setting": "second compound 1 µM, first compound 0.1 µM", "value": 0.1, "unit": "%"},
      {"measurement": "viability, T/C", "setting": "second compound 1 µM, first compound 0.316 µM", "value": 0.92, "unit": "%"},
      {"measurement": "viability, T/C", "setting": "second compound 1 µM, first compound 1 µM", "value": 0.07, "unit": "%"},
      {"measurement": "viability, T/C", "setting": "second compound 1 µM, first compound 3.16 µM", "value": 0.08, "unit": "%"},
      {"measurement": "viability, T/C", "setting": "second compound 1 µM, first compound 10 µM", "value": 0.09, "unit": "%"},
      {"measurement": "viability, T/C", "setting": "second compound 3.16 µM, first compound 0.0316 µM", "value": 0.14, "unit": "%"},
      {"measurement": "viability, T/C", "setting": "second compound 3.16 µM, first compound 0.1 µM", "value": 0.12, "unit": "%"},
      {"measurement": "viability, T/C", "setting": "second compound 3.16 µM, first compound 0.316 µM", "value": 0.21, "unit": "%"},
      {"measurement": "viability, T/C", "setting": "second compound 3.16 µM, first compound 1 µM", "value": 0.12, "unit": "%"},
      {"measurement": "viability, T/C", "setting": "second compound 3.16 µM, first compound 3.16 µM", "value": 0.15, "unit": "%"},
      {"measurement": "viability, T/C", "setting": "second compound 3.16 µM, first compound 10 µM", "value": 0.13, "unit": "%"},
      {"measurement": "viability, T/C", "setting": "second compound 10 µM, first compound 0.0316 µM", "value": 0.14, "unit": "%"},
      {"measurement": "viability, T/C", "setting": "second compound 10 µM, first compound 0.1 µM", "value": 0.17, "unit": "%"},
      {"measurement": "viability, T/C", "setting": "second compound 10 µM, first compound 0.316 µM", "value": 0.19, "unit": "%"},
      {"measurement": "viability, T/C", "setting": "second compound 10 µM, first compound 1 µM", "value": 1.2, "unit": "%"},
      {"measurement": "viability, T/C", "setting": "second compound 10 µM, first compound 3.16 µM", "value": 0.16, "unit": "%"},
      {"measurement": "viability, T/C", "setting": "second compound 10 µM, first compound 10 µM", "value": 2.06, "unit": "%"}
    ]}
  ]
}
